Assay results as given in patent US7495104B2, “Quinoline or quinazoline derivatives inhibiting auto-phosphorylation of fibroblast growth factor receptors” (Kirin Beer Kabushiki Kaisha, priority 2001, dated 2009).
Structures can show the parent of a compound that is named as a salt.

molecular target: Bek (Homo sapiens, UniProt P21802); experiment: Inhibitory activity against Bek-autophosphorylation using ELISA method in OCUM-2MD3 cells; format: cell-based; details: 1 hr with compound, read-out: IC50 (concentration necessary for inhibiting 50% of Bek-phosphorylation)
Protocol: Human scirrhus stomach cancer cells OCUM-2MD3 (kindly provided by Dr. Kosei Hirakawa, Osaka City University) were cultured in an RPMI medium containing 10% fetal calf serum (purchased from ICN) within a 5% carbon dioxide incubator until 50 to 90% confluent. The harvested cells were seeded onto 96-well flat-bottom plate in RPMI containing 0.1% fetal calf serum at 3.5×10^4 cells per well, followed by cultivation at 37° C. overnight. A solution of the test compound in dimethyl sulfoxide was added to each well, and the cultivation was continued at 37° C. for additional one hr. The medium was removed, and 50 μl of lysis buffer (20 mM HEPES (pH 7.4), 150 mM NaCl, 0.2% Triton X-100, 10% glycerol, 5 mM sodium orthovanadylate, 5 mM disodium ethylenediaminetetraacetate, and 2 mM Na4P2O7) was then added thereto. The mixture was shaken at 4° C. for 2 hr to prepare cell extracts.
Separately, phosphate buffered saline (50 μl, pH 7.4) containing 5 μg/ml of anti-phospho-tyrosine antibody (PY20; purchased from Transduction Laboratories) was added to a microplate for ELISA (Maxisorp; purchased from NUNC), followed by standing at 4° C. overnight to form a solid phase on the wells. After washing of the plate, 300 μl of a blocking solution was added, followed by standing at room temperature for 2 hr to perform blocking. After washing, the whole quantity of the cell extracts was transferred to the wells, and the plate was then allowed to stand at 4° C. overnight. After washing, an anti-Bek antibody (Bek (C-17), purchased from Santa Cruz Biotechnology) or Anti-Human K-sam Rabbit IgG Affinity Purity (purchased from IBL Co., Ltd.) was allowed to react at room temperature for one hr, and, after washing, a peroxidase-labeled anti-rabbit Ig antibody (purchased from Amersham) was allowed to react at room temperature for one hr. After washing, a chromophoric substrate for peroxidase (purchased from Sumitomo Bakelite Co., Ltd.) was added thereto to initiate a reaction. After a suitable level of color development, a reaction termination solution was added to stop the reaction, and the absorbance at 450 nm was measured with a microplate reader. The Bek-phosphorylation activity for each well was determined by presuming the absorbance without the addition of the medicament to be 100% Bek-phosphorylation activity and the absorbance with the addition of a large excess of a positive control (N-{4-[(6,7-dimethoxy-4-quinolyl)oxy]phenyl}-N′-(3,3-dimethylbutyl)urea, 1000 nM) to be 0% Bek-phosphorylation activity. The concentration of the test compound was varied on several levels, the Bek-phosphorylation inhibitory activity was determined for each case, and the concentration of the test compound necessary for inhibiting 50% of Bek-phosphorylation (IC50) was calculated.

Bek, sequence (P21802 431-767 limits assumed): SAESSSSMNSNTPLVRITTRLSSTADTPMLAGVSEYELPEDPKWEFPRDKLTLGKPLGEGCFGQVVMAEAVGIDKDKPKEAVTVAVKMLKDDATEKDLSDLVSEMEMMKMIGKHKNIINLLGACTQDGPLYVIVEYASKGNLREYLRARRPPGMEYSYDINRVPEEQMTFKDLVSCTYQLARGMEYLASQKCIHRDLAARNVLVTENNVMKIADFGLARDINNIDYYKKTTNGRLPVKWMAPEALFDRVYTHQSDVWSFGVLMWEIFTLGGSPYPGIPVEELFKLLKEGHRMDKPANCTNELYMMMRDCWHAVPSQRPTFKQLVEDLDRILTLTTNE

SMILES | IC50 [nM]
COc1cc2c(Oc3ccc(NC(=O)NCCC(C)(C)C)c(Cl)c3)ccnc2cc1OCc1ccccc1 [Compound 163, 1-[4-(7-Benzyloxy-6-methoxy-quinolin-4-yloxy)-2-chloro-phenyl]-3-(3,3-dimethyl-butyl)-urea] | 370
COc1cc2c(Oc3ccc(NC(=O)NCCC(C)(C)C)c(Cl)c3)ccnc2cc1OCCCN1CCCCC1 [Compound 180, 1-{2-Chloro-4-[6-methoxy-7-(3-piperidin-1-yl-propoxy)-quinolin-4-yloxy]-phenyl}-3-(3,3-dimethyl-butyl)-urea] | 22.7
COc1cc2c(Oc3ccc(NC(=O)NCCC(C)(C)C)c(Cl)c3)ccnc2cc1OCCCN(C)CCO [Compound 178, 1-[2-Chloro-4-(7-{3-[(2-hydroxy-ethyl)-methyl-amino]-propoxy}-6-methoxy-quinolin-4-yloxy)-phenyl]-3-(3,3-dimethyl-butyl)-urea] | < 10
COc1cc2nccc(Oc3ccc(NC(=O)NCCC(C)(C)CC(C)(C)C)c(F)c3)c2cc1OC [Compound 149, 1-[4-(6,7-Dimethoxy-quinolin-4-yloxy)-2-fluoro-phenyl]-3-(3,3,5,5-tetramethyl-hexyl)-urea] | 218
COc1cc2c(Oc3ccc(Nc4ccc(C(C)(C)C)cc4)cc3)ccnc2cc1OCCCN1CCC(CCO)CC1 [Compound 218, 2-[1-(3-{4-[4-(4-Tert-butyl-phenylamino)-phenoxy]-6-methoxy-quinolin-7-yloxy}-propyl)-piperidin-4-yl]-ethanol] | 96
COc1cc2nccc(Oc3ccc(NC(=O)NCCC(C)(C)C)cc3F)c2cc1OCCCN1CC(C)OC(C)C1 (centres unmarked) [Compound 231, 1-(3,3-Dimethyl-butyl)-3-(4-{6-[3-(2,6-dimethyl-morpholin-4-yl)-propoxy]-7-methoxy-quinolin-4-yloxy}-3-fluoro-phenyl)-urea] | 113
COc1cc2c(Oc3ccc(NC(=O)NCCC(C)(C)C)cc3)ccnc2cc1OCCCN1CCOCC1 [Compound 155, 1-(3,3-Dimethyl-butyl)-3-{4-[6-methoxy-7-(3-morpholin-4-yl-propoxy)-quinolin-4-yloxy]-phenyl}-urea hydrochloride] | 28.7
COc1cc2c(Oc3ccc(NC(=O)NCCC(C)(C)C)c(Cl)c3)ccnc2cc1OCCCCN1CCOCC1 [Compound 320, 1-{2-Chloro-4-[6-methoxy-7-(4-morpholin-4-yl-butoxy)-quinolin-4-yloxy]-phenyl}-3-(3,3-dimethyl-butyl)-urea] | 21.4
COc1cc2c(Oc3ccc(NC(=O)NCCC(C)(C)C)c(Cl)c3)ccnc2cc1OC[C@@H](O)CN1CCOCC1 [Compound 197, 1-{2-Chloro-4-[7-(2-hydroxy-3-morpholin-4-yl-propoxy)-6-methoxy-quinolin-4-yloxy]-phenyl}-3-(3,3-dimethyl-butyl)-urea] | < 10
COc1cc2c(Oc3ccc(NC(=O)NCCC(C)(C)C)cc3F)ccnc2cc1OCCN1C(C)CCCC1C (centres unmarked) [Compound 132, 1-(3,3-Dimethyl-butyl)-3-(4-{7-[2-(2,6-dimethyl-piperidin-1-yl)-ethoxy]-6-methoxy-quinolin-4-yloxy}-3-fluoro-phenyl)-urea] | 146
COc1cc2c(Oc3ccc(NC(=O)NCCC(C)(C)C)cc3)ccnc2cc1OCCCN1CCCCC1 [Compound 154, 1-(3,3-Dimethyl-butyl)-3-{4-[6-methoxy-7-(3-piperidin-1-yl-propoxy)-quinolin-4-yloxy]-phenyl}-urea hydrochloride] | 24.4

Continued, values first:

IC50 [nM] | SMILES
20.5 | COc1cc2c(Oc3ccc(NC(=O)NCCC(C)(C)C)cc3Cl)ccnc2cc1OCCN1CCC(CO)CC1 [Compound 312, 1-(3-Chloro-4-{7-[2-(4-hydroxymethyl-piperidin-1-yl)-ethoxy]-6-methoxy-quinolin-4-yloxy}-phenyl)-3-(3,3-dimethyl-butyl)-urea]
15.7 | COc1cc2c(Oc3ccc(NC(=O)NCCC(C)(C)C)c(Cl)c3)ccnc2cc1OCCCN1CCC(O)CC1 [Compound 268, 1-(2-Chloro-4-{7-[3-(4-hydroxy-piperidin-1-yl)-propoxy]-6-methoxy-quinolin-4-yloxy}-phenyl)-3-(3,3-dimethyl-butyl)-urea]
31.2 | COc1cc2c(Oc3ccc(NC(=O)NCCC(C)(C)C)c(F)c3)ccnc2cc1OCCCN1CCC(CCO)CC1 [Compound 304, 1-(3,3-Dimethyl-butyl)-3-[2-fluoro-4-(7-{3-[4-(2-hydroxy-ethyl)-piperidin-1-yl]-propoxy}-6-methoxy-quinolin-4-yloxy)-phenyl]-urea]
30.1 | COc1cc2c(Oc3ccc(NC(=O)NCCC(C)(C)C)c(Cl)c3)ccnc2cc1OCCNCCO [Compound 331, 1-(2-Chloro-4-{7-[2-(2-hydroxy-ethylamino)-ethoxy]-6-methoxy-quinolin-4-yloxy}-phenyl)-3-(3,3-dimethyl-butyl)-urea]
354 | COc1cc2c(Oc3ccc(Nc4ccc(C(C)(C)C)cc4)cc3)ccnc2cc1OCCNCC1CCCO1 (centres unmarked) [Compound 347, N1-[4-(Tert-butyl)phenyl]-4-[(6-methoxy-7-{2-[(tetrahydro-2-furanylmethyl)amino]ethoxy}-4-quinolyl)oxy]aniline]
35.6 | COc1cc2c(Oc3ccc(NC(=O)NCCC(C)(C)C)cc3)ccnc2cc1OCCCN(C)CCO [Compound 269, 1-(3,3-Dimethyl-butyl)-3-[4-(7-{3-[(2-hydroxy-ethyl)-methyl-amino]-propoxy}-6-methoxy-quinolin-4-yloxy)-phenyl]-urea]
286 | COc1cc2c(Oc3ccc(Nc4ccc(C(C)(C)C)cc4)c(F)c3)ccnc2cc1OCCCN1CCC(CCO)CC1 [Compound 306, 2-[1-(3-{4-[4-(4-Tert-butyl-phenylamino)-3-fluoro-phenoxy]-6-methoxy-quinolin-7-yloxy}-propyl)-piperidin-4-yl]-ethanol]
19.8 | COc1cc2c(Oc3ccc(NC(=O)NCCC(C)(C)C)cc3F)ccnc2cc1OCCN1CCC(O)CC1 [Compound 296, 1-(3,3-Dimethyl-butyl)-3-(3-fluoro-4-{7-[2-(4-hydroxy-piperidin-1-yl)-ethoxy]-6-methoxy-quinolin-4-yloxy}-phenyl)-urea]
244 | COCC1CCN(CCOc2cc3nccc(Oc4ccc(Nc5ccc(C(C)(C)C)cc5)cc4)c3cc2OC)CC1 [Compound 281, (4-Tert-butyl-phenyl)-(4-{6-methoxy-7-[2-(4-methoxymethyl-piperidin-1-yl)-ethoxy]-quinolin-4-yloxy}-phenyl)-amine]
19.5 | COc1cc2c(Oc3ccc(NC(=O)NCCC(C)(C)C)cc3)ccnc2cc1OCCN(CC(C)O)CC(C)O (centres unmarked) [Compound 360, 1-[4-(7-{2-[Bis-(2-hydroxy-propyl)-amino]-ethoxy}-6-methoxy-quinolin-4-yloxy)-phenyl]-3-(3,3-dimethyl-butyl)-urea]
20.8 | COc1cc2c(Oc3ccc(NC(=O)NCCC(C)(C)C)c(F)c3)ccnc2cc1OCCNCCO [Compound 329, 1-(3,3-Dimethyl-butyl)-3-(2-fluoro-4-{7-[2-(2-hydroxy-ethylamino)-ethoxy]-6-methoxy-quinolin-4-yloxy}-phenyl)-urea]
< 10 | COc1cc2c(Oc3ccc(NC(=O)NCCC(C)(C)C)cc3F)ccnc2cc1OCCCN1CCOCC1 [Compound 326, 1-(3,3-Dimethyl-butyl)-3-{3-fluoro-4-[6-methoxy-7-(3-morpholin-4-yl-propoxy)-quinolin-4-yloxy]-phenyl}-urea]
